Species: Rattus norvegicus
Assay: Open TG-GATES - Regimen: Single
Assay type: toxicity, organism-based, Sprague-Dawley
Set-up: regimen Single, gender Male, age 6 weeks
Conditions: in vivo, po, route gavage; for APTT / Bas / Eos / Fbg / Hb / Ht / Lym / MCH / MCHC / MCV / Mono / Neu / PT / Plat / RBC / Ret / WBC: tissue Blood; for KIDNEY_L / KIDNEY_R / KIDNEY_TOTAL: tissue Kidney; for LIVER: tissue Liver; for A/G / ALP / ALT / AST / BUN / CRE / Ca / Cl / DBIL / GLC / IP / K / LDH / Na / PL / RALB / TBIL / TC / TG / TP / gamma-GTP: tissue Plasma
[1] = 0 mg/kg, 3 h, dose level Control
[2] = 0 mg/kg, 6 h, dose level Control
[3] = 0 mg/kg, 9 h, dose level Control
[4] = 0 mg/kg, 24 h, dose level Control

## Cn1cnc([N+](=O)[O-])c1Sc1ncnc2nc[nH]c12 [AZATHIOPRINE]
[1]
  TERMINAL_BW: 189.8 g
  APTT: 23.1 s
  Bas: 0%
  Eos: 1%
  Fbg: 288.2 mg/dL
  Hb: 13.4 g/dL
  Ht: 39.3%
  Lym: 78.6%
  MCH: 21.9 pg
  MCHC: 34%
  MCV: 64.5 fL
  Mono: 2.4%
  Neu: 17.2%
  PT: 15.7 s
  Plat: 117.7 x10_4/uL
  RBC: 610.8 x10_4/ul
  Ret: 9.3%
  WBC: 98.5 x10_2/uL
  KIDNEY_L: 0.9 g
  KIDNEY_R: 0.9 g
  KIDNEY_TOTAL: 1.7 g
  LIVER: 8.6 g
  A/G: 1.1
  ALP: 1465.6 IU/L
  ALT: 46.8 IU/L
  AST: 78.4 IU/L
  BUN: 11.8 mg/dL
  CRE: 0.2 mg/dL
  Ca: 10.3 mg/dL
  Cl: 107 meq/L
  DBIL: 0 mg/dL
  GLC: 175.4 mg/dL
  IP: 8.2 mg/dL
  K: 3.9 meq/L
  LDH: 217.6 IU/L
  Na: 142.6 meq/L
  PL: 129.6 mg/dL
  RALB: 2.9 g/dL
  TBIL: 0.006 mg/dL
  TC: 79 mg/dL
  TG: 46 mg/dL
  TP: 5.5 g/dL
  gamma-GTP: 1.2 IU/L
[2]
  TERMINAL_BW: 186.3 g
  APTT: 21.1 s
  Bas: 0%
  Eos: 1%
  Fbg: 307.4 mg/dL
  Hb: 13.2 g/dL
  Ht: 39.3%
  Lym: 73.8%
  MCH: 21.6 pg
  MCHC: 33.7%
  MCV: 64.1 fL
  Mono: 2.4%
  Neu: 22%
  PT: 15.7 s
  Plat: 124.9 x10_4/uL
  RBC: 612.4 x10_4/ul
  Ret: 9.5%
  WBC: 66 x10_2/uL
  KIDNEY_L: 0.9 g
  KIDNEY_R: 0.9 g
  KIDNEY_TOTAL: 1.7 g
  LIVER: 8.4 g
  A/G: 1.3
  ALP: 1451.6 IU/L
  ALT: 42.8 IU/L
  AST: 70.8 IU/L
  BUN: 11.6 mg/dL
  CRE: 0.1 mg/dL
  Ca: 10.4 mg/dL
  Cl: 106.4 meq/L
  DBIL: 0.002 mg/dL
  GLC: 183.8 mg/dL
  IP: 8.8 mg/dL
  K: 4.2 meq/L
  LDH: 254.6 IU/L
  Na: 141.6 meq/L
  PL: 137.8 mg/dL
  RALB: 3.1 g/dL
  TBIL: 0.014 mg/dL
  TC: 77.6 mg/dL
  TG: 66.8 mg/dL
  TP: 5.5 g/dL
  gamma-GTP: 1 IU/L
[3]
  TERMINAL_BW: 190.4 g
  APTT: 20.8 s
  Bas: 0%
  Eos: 0.6%
  Fbg: 301.8 mg/dL
  Hb: 12.6 g/dL
  Ht: 37.7%
  Lym: 79.6%
  MCH: 21.6 pg
  MCHC: 33.2%
  MCV: 65 fL
  Mono: 2%
  Neu: 16.2%
  PT: 15.2 s
  Plat: 127.2 x10_4/uL
  RBC: 582 x10_4/ul
  Ret: 9.9%
  WBC: 93.5 x10_2/uL
  KIDNEY_L: 0.9 g
  KIDNEY_R: 0.9 g
  KIDNEY_TOTAL: 1.9 g
  LIVER: 8.2 g
  A/G: 1.3
  ALP: 1520.4 IU/L
  ALT: 38 IU/L
  AST: 72.8 IU/L
  BUN: 10.6 mg/dL
  CRE: 0.1 mg/dL
  Ca: 10.5 mg/dL
  Cl: 105.6 meq/L
  DBIL: 0.004 mg/dL
  GLC: 176.2 mg/dL
  IP: 9.5 mg/dL
  K: 4.3 meq/L
  LDH: 182.4 IU/L
  Na: 141.2 meq/L
  PL: 125.2 mg/dL
  RALB: 3 g/dL
  TBIL: 0.016 mg/dL
  TC: 76.4 mg/dL
  TG: 46.2 mg/dL
  TP: 5.3 g/dL
  gamma-GTP: 1 IU/L
[4]
  TERMINAL_BW: 202.7 g
  APTT: 21.7 s
  Bas: 0%
  Eos: 0.6%
  Fbg: 308.2 mg/dL
  Hb: 13.5 g/dL
  Ht: 39.6%
  Lym: 77.4%
  MCH: 22.2 pg
  MCHC: 34.1%
  MCV: 65.2 fL
  Mono: 2%
  Neu: 18.6%
  PT: 16.2 s
  Plat: 117.2 x10_4/uL
  RBC: 607 x10_4/ul
  Ret: 8.8%
  WBC: 97.8 x10_2/uL
  KIDNEY_L: 0.9 g
  KIDNEY_R: 0.9 g
  KIDNEY_TOTAL: 1.7 g
  LIVER: 9.6 g
  A/G: 1.2
  ALP: 1642 IU/L
  ALT: 46 IU/L
  AST: 74.6 IU/L
  BUN: 16.8 mg/dL
  CRE: 0.1 mg/dL
  Ca: 11 mg/dL
  Cl: 106.8 meq/L
  DBIL: 0 mg/dL
  GLC: 185.6 mg/dL
  IP: 7 mg/dL
  K: 3.9 meq/L
  LDH: 223.2 IU/L
  Na: 143.2 meq/L
  PL: 156.8 mg/dL
  RALB: 3.1 g/dL
  TBIL: 0.006 mg/dL
  TC: 86.8 mg/dL
  TG: 102.8 mg/dL
  TP: 5.6 g/dL
  gamma-GTP: 1 IU/L
3 mg/kg, 3 h, dose level Low
  TERMINAL_BW: 191 g
  APTT: 23.4 s
  Bas: 0%
  Eos: 1%
  Fbg: 295.8 mg/dL
  Hb: 13.4 g/dL
  Ht: 40.1%
  Lym: 77.8%
  MCH: 21.6 pg
  MCHC: 33.4%
  MCV: 64.6 fL
  Mono: 1.8%
  Neu: 18.2%
  PT: 15.8 s
  Plat: 115.7 x10_4/uL
  RBC: 621.4 x10_4/ul
  Ret: 9.1%
  WBC: 67.9 x10_2/uL
  KIDNEY_L: 0.8 g
  KIDNEY_R: 0.9 g
  KIDNEY_TOTAL: 1.7 g
  LIVER: 8.6 g
  A/G: 1.2
  ALP: 1535.2 IU/L
  ALT: 41.6 IU/L
  AST: 73.4 IU/L
  BUN: 13.2 mg/dL
  CRE: 0.1 mg/dL
  Ca: 10.6 mg/dL
  Cl: 106.8 meq/L
  DBIL: 0.002 mg/dL
  GLC: 190.2 mg/dL
  IP: 8.1 mg/dL
  K: 4.2 meq/L
  LDH: 273.6 IU/L
  Na: 142.8 meq/L
  PL: 139.2 mg/dL
  RALB: 3 g/dL
  TBIL: 0.004 mg/dL
  TC: 75.4 mg/dL
  TG: 68 mg/dL
  TP: 5.5 g/dL
  gamma-GTP: 1 IU/L
3 mg/kg, 6 h, dose level Low
  TERMINAL_BW: 185.7 g
  APTT: 21.8 s
  Bas: 0%
  Eos: 0.8%
  Fbg: 324.4 mg/dL
  Hb: 13.1 g/dL
  Ht: 39%
  Lym: 69.2%
  MCH: 22.3 pg
  MCHC: 33.6%
  MCV: 66.3 fL
  Mono: 2.2%
  Neu: 26.2%
  PT: 15.7 s
  Plat: 130.1 x10_4/uL
  RBC: 589.2 x10_4/ul
  Ret: 9.5%
  WBC: 95.2 x10_2/uL
  KIDNEY_L: 0.8 g
  KIDNEY_R: 0.8 g
  KIDNEY_TOTAL: 1.7 g
  LIVER: 8.1 g
  A/G: 1.2
  ALP: 1674.4 IU/L
  ALT: 43.2 IU/L
  AST: 75 IU/L
  BUN: 9.4 mg/dL
  CRE: 0.1 mg/dL
  Ca: 10.5 mg/dL
  Cl: 106.8 meq/L
  DBIL: 0.002 mg/dL
  GLC: 182.4 mg/dL
  IP: 8.8 mg/dL
  K: 4.2 meq/L
  LDH: 288.6 IU/L
  Na: 142.2 meq/L
  PL: 135.8 mg/dL
  RALB: 3 g/dL
  TBIL: 0.008 mg/dL
  TC: 78.8 mg/dL
  TG: 48.4 mg/dL
  TP: 5.5 g/dL
  gamma-GTP: 1 IU/L
3 mg/kg, 9 h, dose level Low
  TERMINAL_BW: 186.8 g
  APTT: 22.5 s
  Bas: 0%
  Eos: 1%
  Fbg: 311.8 mg/dL
  Hb: 13 g/dL
  Ht: 38.7%
  Lym: 74%
  MCH: 21.2 pg
  MCHC: 33.5%
  MCV: 63.4 fL
  Mono: 2.4%
  Neu: 20.6%
  PT: 15.3 s
  Plat: 125.3 x10_4/uL
  RBC: 611 x10_4/ul
  Ret: 9.3%
  WBC: 83.5 x10_2/uL
  KIDNEY_L: 0.9 g
  KIDNEY_R: 0.9 g
  KIDNEY_TOTAL: 1.7 g
  LIVER: 7.5 g
  A/G: 1.2
  ALP: 1456.2 IU/L
  ALT: 38.4 IU/L
  AST: 70.4 IU/L
  BUN: 10.6 mg/dL
  CRE: 0.1 mg/dL
  Ca: 10.5 mg/dL
  Cl: 107 meq/L
  DBIL: 0 mg/dL
  GLC: 183.4 mg/dL
  IP: 9.3 mg/dL
  K: 4.2 meq/L
  LDH: 234.2 IU/L
  Na: 141.6 meq/L
  PL: 140.8 mg/dL
  RALB: 2.9 g/dL
  TBIL: 0.016 mg/dL
  TC: 83.4 mg/dL
  TG: 51.8 mg/dL
  TP: 5.4 g/dL
  gamma-GTP: 1 IU/L
3 mg/kg, 24 h, dose level Low
  TERMINAL_BW: 202.9 g
  APTT: 21.3 s
  Bas: 0%
  Eos: 1%
  Fbg: 322.4 mg/dL
  Hb: 13.5 g/dL
  Ht: 39.2%
  Lym: 77.8%
  MCH: 21.9 pg
  MCHC: 34.5%
  MCV: 63.4 fL
  Mono: 2.2%
  Neu: 18.4%
  PT: 16 s
  Plat: 135.6 x10_4/uL
  RBC: 618.4 x10_4/ul
  Ret: 8.2%
  WBC: 63.3 x10_2/uL
  KIDNEY_L: 0.9 g
  KIDNEY_R: 0.9 g
  KIDNEY_TOTAL: 1.8 g
  LIVER: 9.7 g
  A/G: 1.3
  ALP: 1726.6 IU/L
  ALT: 48.8 IU/L
  AST: 75.4 IU/L
  BUN: 14.6 mg/dL
  CRE: 0.1 mg/dL
  Ca: 11.1 mg/dL
  Cl: 106.8 meq/L
  DBIL: 0 mg/dL
  GLC: 189 mg/dL
  IP: 7.2 mg/dL
  K: 4.1 meq/L
  LDH: 318.6 IU/L
  Na: 143.4 meq/L
  PL: 148.2 mg/dL
  RALB: 3.2 g/dL
  TBIL: 0.004 mg/dL
  TC: 76.4 mg/dL
  TG: 120 mg/dL
  TP: 5.7 g/dL
  gamma-GTP: 1.2 IU/L
